One test has as its target T1, Btk (Homo sapiens, UniProt Q06187).
T1 construct: purchased Promega (Madison, Wis.)
Nature of the test: Btk kinase assay (ADP-Glo). It counts as biochemical. Conditions: ADP-Glo Btk kinase assay kit; ATP 1.2 μM; 60 minutes at room temperature. On the procedure:
Btk kinase assay—The Btk kinase assay was performed using a ADP-Glo Btk kinase assay kit purchased from Promega (Madison, Wis.). The assay was conducted according to the protocols provided in the assay kit. In brief, the enzyme reaction was carried out in the kinase reaction buffer containing Btk (2 ng/μl), ATP (1.2 μM), poly GT peptide (0.3 μM), DTT (40 nM), MnCl2 (1.4 mM), and 1 xkinase buffer (included in the kit) in the presence or absence of the tested articles at various concentrations in 384-well plate at room temperature (22±1° C.) for 60 minutes. The final reaction volume for each reaction was 10 μl. Then, 4 μl of ADP-Glo reagent (included in the kit) was added into the reaction and the plate was further incubated for another 40 minutes to terminate the reaction and deplete the remaining ATP. Finally, 10 μl of the kinase detection reagent was added into each reaction to simultaneously convert ADP to ATP and allow the newly synthesized ATP to be measured by a plate-reading luminometer (Victor X5 2030 multilabel reader, PerkinElmer). IC50 value was calculated using appropriate programs in GraphPad Prism by plotting the logarithm of the concentration versus percent inhibition as compared with a vehicle (DMSO) control.
(ADP-Glo first removes unused ATP, then detects ADP through luciferase.)

The test system of the next test is TMD-8 cells. The test can be described thus: Cell proliferation assay (CellTiter-Glo), TMD-8 cells. Type of test: cell-based. Conditions: Homo sapiens, TMD8, 120 h, 5-day treatment, read-out: TMD8 cell growth (GI50 μM). On the procedure:
Cell proliferation assay: TMD-8 and SU-DHL-1 cells were maintained at 37° C. in a humidified atmosphere with 5% CO2 in the recommended medium and serum concentrations. For cell proliferation assay, cells were seeded in 96-well pates at a density of 5,000 to 10,000 cells per well and cultured overnight at 37° C. in recommended medium supplemented with 5-10% FBS. On the next day, the test articles at various concentrations or vehicle control (0.5% DMSO) were added into cell culture. After 5-day treatment, the growth of cells was assayed by the CellTiter-Glo® Luminestceaent Cell Viability Assay (Promega). IC50 values were calculated using GraphPad Prism by plotting the logarithm of the concentration versus percent inhibition of cell growth as compared with the vehicle control.
On the technique in general: Cellular ATP, detected with luciferase, serves as a proxy for viable cell number.

T1 sequence (Q06187 whole entry): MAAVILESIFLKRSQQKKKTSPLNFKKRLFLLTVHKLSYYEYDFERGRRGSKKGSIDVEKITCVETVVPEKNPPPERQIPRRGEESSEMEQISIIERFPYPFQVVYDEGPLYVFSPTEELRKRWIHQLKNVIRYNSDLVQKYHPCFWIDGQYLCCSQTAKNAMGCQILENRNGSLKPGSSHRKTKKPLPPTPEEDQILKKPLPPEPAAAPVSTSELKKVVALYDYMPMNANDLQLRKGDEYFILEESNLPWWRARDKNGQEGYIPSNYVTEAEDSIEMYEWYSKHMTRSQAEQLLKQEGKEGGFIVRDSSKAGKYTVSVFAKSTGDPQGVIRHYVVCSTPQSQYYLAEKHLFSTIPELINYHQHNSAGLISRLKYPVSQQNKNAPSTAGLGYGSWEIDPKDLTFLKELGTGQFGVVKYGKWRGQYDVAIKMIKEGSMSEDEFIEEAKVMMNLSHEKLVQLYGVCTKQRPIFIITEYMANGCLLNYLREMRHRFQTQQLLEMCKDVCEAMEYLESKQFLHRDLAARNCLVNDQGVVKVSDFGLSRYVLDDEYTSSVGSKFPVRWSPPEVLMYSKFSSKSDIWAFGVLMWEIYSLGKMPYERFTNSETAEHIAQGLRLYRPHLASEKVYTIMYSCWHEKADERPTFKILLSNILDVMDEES

What is called IC50 is the concentration needed to halve the response being measured. A high value points to weaker potency. In general, GI50 refers to the concentration that inhibits growth by half. At Btk, `C=CC(=O)N1CC[C@@H](Nc2ncnc3[nH]c(C#Cc4ccc(OC)cc4)cc23)C1` [Example 53, (R)-1-(3-((6-((4-methoxyphenyl)ethynyl)-7H-pyrrolo[2,3-d]pyrimidin-4-yl)amino)pyrrolidin-1-yl)prop-2-en-1-one] registered an IC50 of 23 nM. The GI50 with TMD-8 cells stood at 0.006 µM.
In the same order, the values of `C=CC(=O)N1CC[C@@H](Nc2ncnc3[nH]c(C#Cc4cccc(OC)c4)cc23)C1` [Example 60, (R)-1-(3-((6-((3-methoxyphenyl)ethynyl)-7H-pyrrolo[2,3-d]pyrimidin-4-yl)amino)pyrrolidin-1-yl)prop-2-en-1-one] are 11 nM and 0.005 µM.
The like results for `C=CC(=O)N1CCC(N(C)c2ncnc3[nH]c(C#CCOc4ccccc4)cc23)C1` (centres unmarked) [Example 38, 1-(3-(methyl(6-(3-phenoxyprop-1-yn-1-yl)-7H-pyrrolo[2,3-d]pyrimidin-4-yl)amino)pyrrolidin-1-yl)prop-2-en-1-one] were, in that order, 384 nM and 0.209 µM.
At Btk, `O=C(/C=C/CN1CCOCC1)N1CCC(Nc2ncnc3[nH]c(C#CCOc4ccccc4)cc23)C1` (centres unmarked) [Example 36, (E)-4-morpholino-1-(3-((6-(3-phenoxyprop-1-yn-1-yl)-7H-pyrrolo[2,3-d]pyrimidin-4-yl)amino)pyrrolidin-1-yl)but-2-en-1-one] came in with an IC50 of 127 nM. Moreover, in the test on TMD-8 cells, the GI50 was 0.552 µM.
The like results for `O=C(C1CC1)N1CC[C@@H](Nc2ncnc3[nH]c(C#CCOc4ccccc4F)cc23)C1` [Example 93, (R)-cyclopropyl(3-((6-(3-(2-fluorophenoxy)prop-1-yn-1-yl)-7H-pyrrolo[2,3-d]pyrimidin-4-yl)amino)pyrrolidin-1-yl)methanone] were, in that order, 578 nM and 4.2 µM.
With `C=CC(=O)N1CC[C@@H](Nc2ncnc3[nH]c(C#CCOc4ccccc4C(F)(F)F)cc23)C1` [Example 87, (R)-1-(3-((6-(3-(2-(trifluoromethyl)phenoxy)prop-1-yn-1-yl)-7H-pyrrolo[2,3-d]pyrimidin-4-yl)amino)pyrrolidin-1-yl)prop-2-en-1-one], the IC50 against Btk was 43 nM. The GI50 in the test on TMD-8 cells worked out at 0.002 µM.
Consider `C=CC(=O)N1CCN(c2ncnc3[nH]c(C#CCOc4ccccc4)nc23)CC1` [Example 6, 1-(4-(8-(3-phenoxyprop-1-yn-1-yl)-9H-purin-6-yl)piperazin-1-yl)prop-2-en-1-one], for which the IC50 on Btk was found to be 16.4 nM. The GI50 in the test on TMD-8 cells turned out to be 0.019 µM.
Turning to `C=CC(=O)N1CC[C@@H](Nc2ncnc3[nH]c(C#Cc4ccccc4)cc23)C1` [Example 50, (R)-1-(3-((6-(phenylethynyl)-7H-pyrrolo[2,3-d]pyrimidin-4-yl)amino)pyrrolidin-1-yl)prop-2-en-1-one], the IC50 against Btk amounted to 11 nM. The GI50 in the test on TMD-8 cells stood at 0.009 µM.
With `C=CC(=O)N1CC[C@@H](Nc2ncnc3[nH]c(C#CCOc4ccccc4F)nc23)C1` [Example 101, (R)-1-(3-((8-(3-(2-fluorophenoxy)prop-1-yn-1-yl)-9H-purin-6-yl)amino)pyrrolidin-1-yl)prop-2-en-1-one], at Btk, the IC50 came to 1 nM. In addition, the GI50 in the test with TMD-8 cells is 0.003 µM.
As for `O=C(/C=C/CN1CCOCC1)N1CCN(c2ncnc3[nH]c(C#CCOc4ccccc4)nc23)CC1` [Example 8, (E)-4-morpholino-1-(4-(8-(3-phenoxyprop-1-yn-1-yl)-9H-purin-6-yl)piperazin-1-yl)but-2-en-1-one], the IC50 against Btk came out at 332 nM. For the same compound, the GI50 in the test on TMD-8 cells was 0.357 µM.
The compound `C=CC(=O)N1CC[C@@H](Nc2ncnc3[nH]c(C#CCOc4ccccc4Cl)cc23)C1` [Example 43, (R)-1-(3-((6-(3-(2-chlorophenoxy)prop-1-yn-1-yl)-7H-pyrrolo[2,3-d]pyrimidin-4-yl)amino)pyrrolidin-1-yl)prop-2-en-1-one] yielded an IC50 on Btk of 0.14 nM. In addition, the GI50 with TMD-8 cells turned out to be 0.001 µM.
For `C=CC(=O)N1CCC[C@@H](Nc2ncnc3[nH]c(C#Cc4ccccc4)cc23)C1` [Example 96, (R)-1-(3-((6-(phenylethynyl)-7H-pyrrolo[2,3-d]pyrimidin-4-yl)amino)piperidin-1-yl)prop-2-en-1-one], at Btk, 14 nM corresponded to half-maximal inhibition (IC50). The GI50 in the test on TMD-8 cells is 0.066 µM.
The like results for `O=C(/C=C/CN1CCOCC1)N1CCC(Nc2ncnc3[nH]c(C#CCOc4ccccc4)nc23)C1` (centres unmarked) [Example 11, (E)-4-morpholino-1-(3-((8-(3-phenoxyprop-1-yn-1-yl)-9H-purin-6-yl)amino)pyrrolidin-1-yl)but-2-en-1-one] were, in that order, 60 nM and 1.17 µM.
In the same order, the values of `CN(C)C/C=C/C(=O)N1CCN(c2ncnc3[nH]c(C#CCOc4ccccc4)cc23)CC1` [Example 2, (E)-4-(dimethylamino)-1-(4-(6-(3-phenoxyprop-1-yn-1-yl)-7H-pyrrolo[2,3-d]pyrimidin-4-yl)piperazin-1-yl)but-2-en-1-one] are 3.3 nM and 0.034 µM.
In the same order, the values of `CN(C)C/C=C/C(=O)N1CC[C@@H](Nc2ncnc3[nH]c(C#Cc4ccccc4F)cc23)C1` [Example 52, (R,E)-4-(dimethylamino)-1-(3-((6-((2-fluorophenyl)ethynyl)-7H-pyrrolo[2,3-d]pyrimidin-4-yl)amino)pyrrolidin-1-yl)but-2-en-1-one] are 6 nM and 0.187 µM.
In the case of `C=CC(=O)N1CC[C@@H](Nc2ncnc3[nH]c(C#CCOc4cc(F)ccc4F)cc23)C1` [Example 92, (R)-1-(3-((6-(3-(2,5-difluorophenoxy)prop-1-yn-1-yl)-7H-pyrrolo[2,3-d]pyrimidin-4-yl)amino)pyrrolidin-1-yl)prop-2-en-1-one], the IC50 against Btk worked out at 43 nM. Moreover, the concentration for 50% growth inhibition (GI50) in the test with TMD-8 cells came out at 0.0038 µM.
`C=CC(=O)N1CC[C@@H](Nc2ncnc3[nH]c(C#CCOc4ccccc4)nc23)C1` [Example 31, (R)-1-(3-((8-(3-phenoxyprop-1-yn-1-yl)-9H-purin-6-yl)amino)pyrrolidin-1-yl)prop-2-en-1-one] came in with an IC50 at Btk of 1.6 nM. Moreover, the GI50 in the test on TMD-8 cells was determined as 0.02 µM.
Compound `C=CC(=O)N1CC[C@@H](Nc2ncnc3[nH]c(C#CCOc4c(F)cccc4F)nc23)C1` [Example 98, (R)-1-(3-((8-(3-(2,6-difluorophenoxy)prop-1-yn-1-yl)-9H-purin-6-yl)amino)pyrrolidin-1-yl)prop-2-en-1-one] returned an IC50 on Btk of 6 nM. In addition, the GI50 in the test with TMD-8 cells amounted to 0.005 µM.
The like results for `C=CC(=O)N1CC[C@@H](Nc2ncnc3[nH]c(C#Cc4cccc(C(F)(F)F)c4)cc23)C1` [Example 68, (R)-1-(3-((6-((3-trifluoromethylphenyl)ethynyl)-7H-pyrrolo[2,3-d]pyrimidin-4-yl)amino)pyrrolidin-1-yl)prop-2-en-1-one] were, in that order, 187 nM and 0.003 µM.
Consider `C=CC(=O)N1CC[C@@H](Nc2ncnc3[nH]c(C#Cc4ccc5ncccc5c4)cc23)C1` [Example 77, (R)-1-(3-((6-(quinolin-6-ylethynyl)-7H-pyrrolo[2,3-d]pyrimidin-4-yl)amino)pyrrolidin-1-yl)prop-2-en-1-one], for which the IC50 at Btk was 145 nM. Besides, the GI50 in the test with TMD-8 cells amounted to 0.526 µM.
The like results for `COc1ccccc1OCC#Cc1nc2c(NC3CCN(C(=O)/C=C/CN(C)C)C3)ncnc2[nH]1` (centres unmarked) [Example 28, (E)-1-(3-((8-(3-(2-methoxyphenoxy)prop-1-yn-1-yl)-9H-purin-6-yl)amino)pyrrolidin-1-yl)-4-(dimethylamino)but-2-en-1-one] were, in that order, 0.4 nM and 0.082 µM.
`C=CC(=O)N1CC[C@@H](Nc2ncnc3[nH]c(C#Cc4cnn(C)c4)cc23)C1` [Example 80, (R)-1-(3-((6-((1-methyl-1H-pyrazol-4-yl)ethynyl)-7H-pyrrolo[2,3-d]pyrimidin-4-yl)amino)pyrrolidin-1-yl)prop-2-en-1-one] yielded a 50% inhibitory concentration (IC50) at Btk of 255 nM. Also, in the test on TMD-8 cells, the GI50 was 0.51 µM.
In the same order, the values of `CN(C)C/C=C/C(=O)N1CCC(Nc2ncnc3[nH]c(C#CCOc4ccc(F)cc4)nc23)C1` (centres unmarked) [Example 22, (E)-1-(3-((8-(3-(4-fluorophenoxy)prop-1-yn-1-yl)-9H-purin-6-yl)amino)pyrrolidin-1-yl)-4-(dimethylamino)but-2-en-1-one] are 0.02 nM and 1 µM.
Regarding `C=CC(=O)N1CCC(Nc2ncnc3[nH]c(C#CCOc4ccc(Cl)cc4)nc23)C1` (centres unmarked) [Example 19, 1-(3-((8-(3-(4-chlorophenoxy)prop-1-yn-1-yl)-9H-purin-6-yl)amino)pyrrolidin-1-yl)prop-2-en-1-one], on Btk, half-maximal inhibition (IC50) required 22 nM. In addition, the GI50 in the test on TMD-8 cells was found to be 0.148 µM.
The like results for `C=CC(=O)N1CCN(c2ncnc3[nH]c(C#CCOCc4ccccc4)cc23)CC1` [Example 4, 1-(4-(6-(3-(benzyloxy)prop-1-yn-1-yl)-7H-pyrrolo[2,3-d]pyrimidin-4-yl)piperazin-1-yl)prop-2-en-1-one] were, in that order, 60 nM and 0.157 µM.

(Values after patent US10144737B2 (ETERNITY BIOSCIENCE INC., priority 2014, dated 2018).)
